Results published in US6326395A, “Antifungal activity of dicationic molecules” (priority 1999, dated 2001).
Structures can show the parent of a compound that is named as a salt.

Experiments:
Experiment in all cases: antifungal susceptibility testing (MIC, MFC), extended spectrum
Candida albicans A39 = format: cell-based; conditions: Candida albicans A39
Description: (§1) Antifungal susceptibility testing for compounds set forth in Examples 1-20 is discussed hereinbelow. The fungi that were employed included two reference strains, C. neoformans var. neoformans H99 and C. albicans A39 and the following clinical isolates: (1) two strains of fluconazole-resistant C. neoformans var. neoformans (135.95 and 114.96); (2) two strains of C. neoformans var. gattii (119.95 and 114.95); (3) two strains of fluconazole-resistant C. albicans (102.96 and 103.96); and (4) one strain each of Torulopsis glabrata (142.91), Candida parapsilosis (111.96), Candida krusei (132.91), C. tropicalis (110.96), Candida lusitaniae (111.92), Fusarium solani (152.89), Aspergillus fumigatus (168.95), and Aspergillus flavus (112.96). Antifungal susceptibility testing was performed using an RPMI-1640 medium (Sigma Chemical Co., St. Louis, Mo.) with glutamine, without sodium bicarbonate, and buffered at pH 7.0 with 0.165 M morpholine-propanesulfonic acid (MOPS).
(§2) In vitro susceptibility testing in the form of Minimum Inhibitory Concentration (MIC) experiments were performed using the broth macrodilution method according to the recommendations of the National Committee for Clinical Laboratory Standards (see 1995 manual). The only difference compared to the standardized procedure was the choice of drug dilutions ranging from 100 to 0.09 μg/ml. Briefly, this procedure specifies an inoculum grown at 35° C. and adjusted to a concentration of 0.5-2.5×10^3 CFU/ml with an incubation of the test performed at 35° C. and reading at 48 hours for all yeasts except for C. neoformans which is interpreted at 72 hr.
(§3) Minimum Fungicidal Concentration (MFC) experiments were adapted from a method by McGinnis (McGinnis, M. R., (1980) "Susceptibility testing and bioassay procedure", p. 431, Academic Press, Inc., New York). Briefly, 10 μl aliquots from tubes with growth inhibition were plated onto Sabouraud agar plates. The lowest drug concentration that yielded three or fewer yeasts colonies was recorded as the MFC.
(§4) Antifungal susceptibility testing for compounds set forth in Examples 21-28 is discussed hereinbelow. […]
(§5) Minimum Fungicidal Concentration (MFC) experiments were adapted from a method by McGinnis (McGinnis, M. R., (1980) "Susceptibility testing and bioassay procedure", p.431, Academic Press, Inc., New York). […] The lowest drug concentration that yielded 3 or fewer yeasts colonies was recorded as the MFC. […]

C. albicans 102.96 = format: cell-based, Candida albicans; conditions: Candida albicans, C. albicans 102.96, fluconazole-resistant
Description: as §1, §2, §3
(§6) Antifungal susceptibility testing for compounds set forth in Examples 21-28 is discussed hereinbelow. The fungi that were employed included two quality control reference strains, C. neoformans var. neoformansH99 and C. albicans A39 and the following clinical isolates: (1) four strains of C. neoformans var. neoformans (167.95; 135.95; 114.96; and 133.95) of which three were fluconazole-resistant>64 μg/ml (135.95; 114.96; and 133.95); (2) two strains of C. neoformans var. gattii (119.95 and 114.95); (3) two strains of fluconazole-resistant>64 μg/ml C. albicans (102.96 and 103.96); and (4) one strain each of C. glabrata (142.91), Candida parapsilosis (111.96), Candida krusei (132.91), C. tropicalis (110.96), Candida lusitaniae (111.92), Fusarium solani (152.89), Aspergillus fumigatus (168.95), Rhizopus arrhizus (117.89), Paecilomyces lilacinus (137.90), and Aspergillus flavus (112.96). Antifungal susceptibility testing was performed using an RPMI-1640 medium (Sigma Chemical Co., St. Louis, Mo.) with glutamine, without sodium bicarbonate, and buffered at pH 7.0 with 0.165 M morpholinepropanesulfonic acid (MOPS).
as §3, with “p.431,” for “p. 431,”, “3” for “three”, “MFC. Several drugs were also rescreened with a subculture of 100 μl aliquots from tubes with no growth and there was no change in MFC.” for “MFC.”

C. albicans 103.96 = format: cell-based, Candida albicans; conditions: Candida albicans, C. albicans 103.96, fluconazole-resistant
Description: as §1, §2, §3, §6
as §3, with “p.431,” for “p. 431,”, “3” for “three”, “MFC. Several drugs were also rescreened with a subculture of 100 μl aliquots from tubes with no growth and there was no change in MFC.” for “MFC.”

C. krusei 132.91 = format: cell-based, Candida krusei; conditions: Pichia kudriavzevii
Method: (§7) Antifungal susceptibility testing for compounds set forth in Examples 1-20 is discussed hereinbelow. […]
as §2, with “The only difference compared to the standardized procedure was the choice of drug dilutions ranging from 100 to 0.09 μg/ml.” left out
as §5, with “p. 431,” for “p.431,”, “three” for “3”
as §5

C. lusitaniae 111.92 = format: cell-based, Candida lusitaniae; conditions: Clavispora lusitaniae
Method: as §7
as §2, with “The only difference compared to the standardized procedure was the choice of drug dilutions ranging from 100 to 0.09 μg/ml.” left out
as §5, with “p. 431,” for “p.431,”, “three” for “3”
as §5

C. parapsilosis 111.96 = format: cell-based, Candida parapsilosis; conditions: Lodderomyces parapsilosis
Method: as §7
as §2, with “The only difference compared to the standardized procedure was the choice of drug dilutions ranging from 100 to 0.09 μg/ml.” left out
as §5, with “p. 431,” for “p.431,”, “three” for “3”
as §5

C. tropicalis 110.96 = format: cell-based; conditions: Candida tropicalis
Description: as §1, §2, §3, §4, §5

[1] = system: Torulopsis glabrata 142.91; format: cell-based; conditions: Nakaseomyces glabratus
Description: as §1, §2, §3, §4, §5

C. neoformans 114.96 = format: cell-based, C. neoformans var. neoformans; conditions: Cryptococcus neoformans, C. neoformans 114.96, fluconazole-resistant
Description: as §1
as §2, with “The only difference compared to the standardized procedure was the choice of drug dilutions ranging from 100 to 0.09 μg/ml.” left out
as §5, with “p. 431,” for “p.431,”, “three” for “3”
as §5

MIC (Candida albicans A39; 48 hours, read-out: MIC80): 0.78 µg/mL
MIC (C. albicans 102.96; 48 hours, read-out: MIC80): 1.56 µg/mL
MIC (C. albicans 103.96; 48 hours, read-out: MIC80): 1.56 µg/mL
MIC (C. krusei 132.91; 48 hours, read-out: MIC80): 0.78 µg/mL
MIC (C. lusitaniae 111.92; 48 hours, read-out: MIC80): 0.78 µg/mL
MIC (C. parapsilosis 111.96; 48 hours, read-out: MIC80): 0.78 µg/mL
MIC (C. tropicalis 110.96; 48 hours, read-out: MIC80): 0.78 µg/mL
MIC ([1]; 48 hours, read-out: MIC80): 0.78 µg/mL
MIC (C. neoformans 114.96; 72 hr, read-out: MIC80): 0.78 µg/mL
SMILES: CC(C)NC(=N)c1ccc2nc(-c3ccc4c(c3)Cc3cc(-c5nc6ccc(C(=N)NC(C)C)cc6[nH]5)ccc3-4)[nH]c2c1 [Compound 57, 2,7-Bis[2-(5-N-isopropylamidino)benzimidazoyl]fluorene hydrochloride]
MFC (Candida albicans A39): 1.56 µg/mL
MFC (C. albicans 102.96): 12.5 µg/mL
MFC (C. albicans 103.96): 12.5 µg/mL
MFC (C. krusei 132.91): 0.78 µg/mL
MFC (C. lusitaniae 111.92): 3.12 µg/mL
MFC (C. parapsilosis 111.96): 0.78 µg/mL
MFC (C. tropicalis 110.96): 1.56 µg/mL
MFC [1]: 0.78 µg/mL
MFC (C. neoformans 114.96): 0.78 µg/mL
